Measurements published in patent US20260092071A1, “COMPOUNDS AND COMPOSITIONS AS SMARCA2/4 DEGRADERS AND USES THEREOF” (REGENTS OF THE UNIVERSITY OF MICHIGAN, priority 2022, published 2026).

Tests used:
SMARCA2 [1] = biological target: T1, SMARCA2 (Homo sapiens, UniProt P51531); experiment: HiBiT assay for protein degradation, Hela SMARCA2-HiBiT cells (A series); type: cell-based; parameters: Hela cells were genetically modified via CRISPR/Cas9 to fuse HiBiT to the carboxy terminus of SMARCA2; host or cells: HeLa (CRISPR/Cas9 HiBiT knock-in); conditions: Hela SMARCA2-HiBiT cells, 24 hours treatment; for Dmax: read-out: SMARC A2 Hela HiBit Dmax (%); for DC50: read-out: SMARC A2 Hela HiBit DC50;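 as to SMARC A2 Hela HiBit Dmax (%): 24 h compound treatment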
T1 sequence (P51531 whole entry): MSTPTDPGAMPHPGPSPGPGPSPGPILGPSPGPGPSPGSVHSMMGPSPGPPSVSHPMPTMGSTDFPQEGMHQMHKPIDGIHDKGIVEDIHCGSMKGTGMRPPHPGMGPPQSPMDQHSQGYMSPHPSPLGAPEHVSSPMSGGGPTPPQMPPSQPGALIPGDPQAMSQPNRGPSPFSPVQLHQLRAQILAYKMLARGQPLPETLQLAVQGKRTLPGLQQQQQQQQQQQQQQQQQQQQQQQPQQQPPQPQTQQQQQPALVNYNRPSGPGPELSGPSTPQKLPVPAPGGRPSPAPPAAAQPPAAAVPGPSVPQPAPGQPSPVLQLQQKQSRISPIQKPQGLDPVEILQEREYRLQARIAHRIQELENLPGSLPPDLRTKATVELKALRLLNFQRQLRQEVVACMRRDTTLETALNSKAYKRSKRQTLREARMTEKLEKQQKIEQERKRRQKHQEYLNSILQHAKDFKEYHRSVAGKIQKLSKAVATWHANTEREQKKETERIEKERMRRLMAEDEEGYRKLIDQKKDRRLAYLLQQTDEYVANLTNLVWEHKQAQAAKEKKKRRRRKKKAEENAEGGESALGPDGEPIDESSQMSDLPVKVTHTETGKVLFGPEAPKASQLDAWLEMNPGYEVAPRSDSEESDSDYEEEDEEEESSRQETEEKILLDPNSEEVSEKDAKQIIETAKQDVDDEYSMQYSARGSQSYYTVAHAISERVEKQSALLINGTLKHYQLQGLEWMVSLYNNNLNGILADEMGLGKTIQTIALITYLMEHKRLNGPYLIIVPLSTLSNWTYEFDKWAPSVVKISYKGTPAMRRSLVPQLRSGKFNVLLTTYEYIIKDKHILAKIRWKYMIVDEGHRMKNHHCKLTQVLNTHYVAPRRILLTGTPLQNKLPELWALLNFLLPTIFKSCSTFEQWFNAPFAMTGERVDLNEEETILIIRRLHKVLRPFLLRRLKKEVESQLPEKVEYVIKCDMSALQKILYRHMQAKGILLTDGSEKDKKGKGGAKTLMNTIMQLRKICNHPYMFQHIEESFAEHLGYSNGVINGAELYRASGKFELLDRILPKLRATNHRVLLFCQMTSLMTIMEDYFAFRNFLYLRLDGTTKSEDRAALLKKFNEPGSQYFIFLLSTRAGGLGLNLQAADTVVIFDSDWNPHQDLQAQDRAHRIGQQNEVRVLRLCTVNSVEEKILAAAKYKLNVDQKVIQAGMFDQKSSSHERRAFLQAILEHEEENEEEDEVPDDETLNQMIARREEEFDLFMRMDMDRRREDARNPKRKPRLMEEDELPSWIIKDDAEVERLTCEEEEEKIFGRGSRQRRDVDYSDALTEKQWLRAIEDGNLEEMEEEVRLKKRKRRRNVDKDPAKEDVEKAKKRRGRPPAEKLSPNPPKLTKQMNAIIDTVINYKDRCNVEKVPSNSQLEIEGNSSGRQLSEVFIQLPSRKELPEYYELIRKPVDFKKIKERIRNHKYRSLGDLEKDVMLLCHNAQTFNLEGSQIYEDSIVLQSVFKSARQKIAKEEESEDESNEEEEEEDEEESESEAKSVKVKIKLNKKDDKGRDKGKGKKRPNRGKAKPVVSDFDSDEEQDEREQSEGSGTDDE
Protocol: Hela cells were genetically modified via CRISPR/Cas9 to fuse HiBiT to the carboxy terminus of SMARCA2 (Promega CS302365) or SMARCA4 (Promega CS3023225). Cells were cultured in DMEM containing 10% FBS and 1% (Vol:Vol) penicillin-streptomycin. […] At the end of experiment, levels of SMARCA2 or SMARCA4 expression were assessed with Nano-Glo® HiBiT Lytic Detection Assay (Promega N3050). IC50 was obtained using the GraphPad Prism data analysis software.

SMARCA2 [2] = biological target: T1, SMARCA2; experiment: HiBit assay in engineered HT1080 CRISPR knock-in cell, 6 hrs (B series), SMARCA2; type: cell-based; conditions: 6 hrs incubation
Protocol: The HiBit assay was performed using engineered HT1080 CRISPR knock-in cell utilizing the Nano-Glo HiBiT Lytic Detection System from Promega, Cat #N3040. Compounds were transferred, 25 nL DMSO or test compounds (final DMSO @ 0.1%) to intermediate plates (Corning3570) using ECHO550. Cells were seeded onto compounds at 2000 cells/25 μL/well and incubated for 6 hrs in a tissue culture incubator at 37° C. and 5% CO2. The LgBiT Protein was diluted at 1:100 and the Nano-Glo® HiBIT Lytic Substrate 1:50 into an appropriate volume of room temperature using the Nano-Glo® HiBiT Lytic Buffer. At the end of compound incubation time, 15 ul of the detection reagent was added to each well (without LgBiT for negative control wells) using the Thermo Scientific multidrop combi. The plate was shaken for 10 mins at RT using Combi. After briefly centrifugation (2000 rpm 1 mins), plate was read on Envision (Ultrasensitive luminescence model).

Dmax (SMARCA2 [1]) | DC50 (SMARCA2 [1]) | SMILES | DC50 (SMARCA2 [2]; HT1080 CRISPR knock-in cells, read-out: SMARC A2 HT1080 HiBit DC50) | Dmax (SMARCA2 [2]; HT-1080, HT1080 CRISPR knock-in cells, read-out: SMARC A2 HT1080 HiBit Dmax (%))
70 to 90% | 10 to 100 nM | Cc1ncsc1-c1ccc([C@H](CN2CCOCC2)NC(=O)[C@@H]2C[C@@H](O)CN2C(=O)[C@@H](n2cc([C@H]3CC[C@H](CN4CCC(c5ccc6c(n5)-n5c(nc(=O)c7c(Cl)cccc75)C65CCCCC5)CC4)CC3)nn2)C(C)(C)C)cc1 [Compound A77, (2S,4R)-1-((S)-2-(4-((1r,4S)-4-((4-(4′-chloro-5′-oxo-5′H-spiro[cyclohexane-1,7′-pyrido[3′,2′: 4,5]pyrrolo[1,2-a]quinazolin]-10′-yl)piperidin-1-yl)methyl)cyclohexyl)-1H-1,2,3-triazol-1-yl)-3,3-dimethylbutanoyl)-4-hydroxy-N—((R)-1-(4-(4-methylthiazol-5-yl)phenyl)-2-morpholinoethyl)pyrrolidine-2-carboxamide] | – | –
70 to 90% | < 10 nM | Cc1ncsc1-c1ccc([C@H](CCN2CC(C)(F)C2)NC(=O)[C@@H]2C[C@@H](O)CN2C(=O)[C@@H](n2cc([C@H]3CC[C@H](CN4CCC(c5ccc6c(c5)-n5c(nc(=O)c7c(Cl)cccc75)C65CCCCC5)CC4)CC3)nn2)C(C)(C)C)cc1 [Compound A79, (2S,4R)-1-((S)-2-(4-((1r,4S)-4-((4-(4′-chloro-5′-oxo-5′H-spiro[cyclohexane-1,7′-indolo[1,2-a]quinazolin]-10′-yl)piperidin-1-yl)methyl)cyclohexyl)-1H-1,2,3-triazol-1-yl)-3,3-dimethylbutanoyl)-N—((S)-3-(3-fluoro-3-methylazetidin-1-yl)-1-(4-(4-methylthiazol-5-yl)phenyl)propyl)-4-hydroxypyrrolidine-2-carboxamide] | – | –
70 to 90% | 10 to 100 nM | Cc1ncsc1-c1ccc([C@H](CCN2CC(C)(O)C2)NC(=O)[C@@H]2C[C@@H](O)CN2C(=O)[C@@H](n2cc([C@H]3CC[C@H](CN4CCC(c5ccc6c(c5)-n5c(nc(=O)c7c(Cl)cccc75)C65CCCCC5)CC4)CC3)nn2)C(C)(C)C)cc1 [Compound A80, (2S,4R)-1-((S)-2-(4-((1r,4S)-4-((4-(4′-chloro-5′-oxo-5′H-spiro[cyclohexane-1,7′-indolo[1,2-a]quinazolin]-10′-yl)piperidin-1-yl)methyl)cyclohexyl)-1H-1,2,3-triazol-1-yl)-3,3-dimethylbutanoyl)-4-hydroxy-N—((S)-3-(3-hydroxy-3-methylazetidin-1-yl)-1-(4-(4-methylthiazol-5-yl)phenyl)propyl)pyrrolidine-2-carboxamide] | – | –
> 90% | < 10 nM | Cc1ncsc1-c1ccc([C@H](CCN2CCOCC2)NC(=O)[C@@H]2C[C@@H](O)CN2C(=O)[C@@H](n2cc([C@H]3CC[C@H](CN4CCC(c5ccc6c(c5)-n5c(nc(=O)c7c(Cl)cccc75)C65CCCCC5)CC4)CC3)nn2)C(C)(C)C)cc1 [Compound A81, (2S,4R)-1-((S)-2-(4-((1r,4S)-4-((4-(4′-chloro-5′-oxo-5′H-spiro[cyclohexane-1,7′-indolo[1,2-a]quinazolin]-10′-yl)piperidin-1-yl)methyl)cyclohexyl)-1H-1,2,3-triazol-1-yl)-3,3-dimethylbutanoyl)-4-hydroxy-N—((S)-1-(4-(4-methylthiazol-5-yl)phenyl)-3-morpholinopropyl)pyrrolidine-2-carboxamide] | – | –
> 90% | < 10 nM | COCCOCCOCC[C@H](NC(=O)[C@@H]1C[C@@H](O)CN1C(=O)[C@@H](n1cc([C@H]2CC[C@H](CN3CCC(c4ccc5c(c4)-n4c(nc(=O)c6c(Cl)cccc64)C54CCCCC4)CC3)CC2)nn1)C(C)(C)C)c1ccc(-c2scnc2C)cc1 [Compound A82, (2S,4R)-1-((S)-2-(4-((1r,4S)-4-((4-(4′-chloro-5′-oxo-5′H-spiro[cyclohexane-1,7′-indolo[1,2-a]quinazolin]-10′-yl)piperidin-1-yl)methyl)cyclohexyl)-1H-1,2,3-triazol-1-yl)-3,3-dimethylbutanoyl)-4-hydroxy-N—((S)-3-(2-(2-methoxyethoxy)ethoxy)-1-(4-(4-methylthiazol-5-yl)phenyl)propyl)pyrrolidine-2-carboxamide] | – | –
< 50% | > 1000 nM | Cc1ncsc1-c1ccc([C@H](CN2CCOCC2)NC(=O)[C@@H]2C[C@@H](O)CN2C(=O)[C@@H](n2cc(C3CCC(CN4CCC(c5ccc6c(c5)-n5c(nc(=O)c7ccccc75)C65CCCCC5)CC4)CC3)nn2)C(C)(C)C)cc1 (stereo partly drawn) [Compound A170, (2S,4R)-1-((S)-3,3-dimethyl-2-(4-(4-((4-(5′-oxo-5′H-spiro[cyclohexane-1,7′-indolo[1,2-a]quinazolin]-10′-yl)piperidin-1-yl)methyl)cyclohexyl)-1H-1,2,3-triazol-1-yl)butanoyl)-4-hydroxy-N—((R)-1-(4-(4-methylthiazol-5-yl)phenyl)-2-morpholinoethyl)pyrrolidine-2-carboxamide] | – | –

The remaining lines, values behind:

SMILES | Dmax (SMARCA2 [1]) | DC50 (SMARCA2 [1]) | DC50 (SMARCA2 [2]; HT1080 CRISPR knock-in cells, read-out: SMARC A2 HT1080 HiBit DC50) | Dmax (SMARCA2 [2]; HT-1080, HT1080 CRISPR knock-in cells, read-out: SMARC A2 HT1080 HiBit Dmax (%))
Cc1ncsc1-c1ccc([C@H](CN2CCOCC2)NC(=O)[C@@H]2C[C@@H](O)CN2C(=O)[C@@H](n2cc([C@H]3CC[C@H](CN4CCC(c5ccc6c(n5)-n5c(nc(=O)c7c(Br)cccc75)C65CCCCC5)CC4)CC3)nn2)C(C)(C)C)cc1 [Compound A52, (2S,4R)-1-((S)-2-(4-((1r,4S)-4-((4-(4′-bromo-5′-oxo-5′H-spiro[cyclohexane-1,7′-pyrido[3′,2′: 4,5]pyrrolo[1,2-a]quinazolin]-10′-yl)piperidin-1-yl)methyl)cyclohexyl)-1H-1,2,3-triazol-1-yl)-3,3-dimethylbutanoyl)-4-hydroxy-N—((R)-1-(4-(4-methylthiazol-5-yl)phenyl)-2-morpholinoethyl)pyrrolidine-2-carboxamide] | 70 to 90% | < 100 nM | – | –
Cc1ncsc1-c1ccc([C@H](CN2CCOCC2)NC(=O)[C@@H]2C[C@@H](O)CN2C(=O)[C@@H](n2cc([C@H]3CC[C@H](CN4CCC(c5ccc6c(c5)-n5c(nc(=O)c7c(Br)cccc75)C65CCCCC5)CC4)CC3)nn2)C(C)(C)C)cc1 [Compound A69, (2S,4R)-1-((S)-2-(4-((1r,4S)-4-((4-(4′-bromo-5′-oxo-5′H-spiro[cyclohexane-1,7′-indolo[1,2-a]quinazolin]-10′-yl)piperidin-1-yl)methyl)cyclohexyl)-1H-1,2,3-triazol-1-yl)-3,3-dimethylbutanoyl)-4-hydroxy-N—((R)-1-(4-(4-methylthiazol-5-yl)phenyl)-2-morpholinoethyl)pyrrolidine-2-carboxamide] | > 90% | < 100 nM | – | –
Cc1ncsc1-c1ccc([C@H](CN2CCOCC2)NC(=O)[C@@H]2C[C@@H](O)CN2C(=O)[C@@H](n2cc(C3CCN(CC4CCN(c5ccc6c(c5)-n5c(nc(=O)c7c(Cl)cccc75)C65CCCCC5)CC4)CC3)nn2)C(C)(C)C)cc1 [Compound A168, (2S,4R)-1-((S)-2-(4-(1-((1-(4′-chloro-5′-oxo-5′H-spiro[cyclohexane-1,7′-indolo[1,2-a]quinazolin]-10′-yl)piperidin-4-yl)methyl)piperidin-4-yl)-1H-1,2,3-triazol-1-yl)-3,3-dimethylbutanoyl)-4-hydroxy-N—((R)-1-(4-(4-methylthiazol-5-yl)phenyl)-2-morpholinoethyl)pyrrolidine-2-carboxamide] | < 50% | > 1000 nM | – | –
Cc1ncsc1-c1ccc([C@H](CN2CCOCC2)NC(=O)[C@@H]2C[C@@H](O)CN2C(=O)[C@@H](n2cc(C3CCN(CC4CCN(c5ccc6c(c5)-n5c(nc(=O)c7c(Br)cccc75)C65CCCCC5)CC4)CC3)nn2)C(C)(C)C)cc1 [Compound A169, (2S,4R)-1-((S)-2-(4-(1-((1-(4′-bromo-5′-oxo-5′H-spiro[cyclohexane-1,7′-indolo[1,2-a]quinazolin]-10′-yl)piperidin-4-yl)methyl)piperidin-4-yl)-1H-1,2,3-triazol-1-yl)-3,3-dimethylbutanoyl)-4-hydroxy-N—((R)-1-(4-(4-methylthiazol-5-yl)phenyl)-2-morpholinoethyl)pyrrolidine-2-carboxamide] | – | > 1000 nM | – | –
Cc1ncsc1-c1ccc([C@H](CN2CCOCC2)NC(=O)[C@@H]2C[C@@H](O)CN2C(=O)[C@@H](n2cc([C@H]3CC[C@H](CN4CCC(c5ccc6c(c5)-n5c(nc(=O)c7c(Br)cccc75)C65CCCCC5)CC4)CC3)nn2)C(C)(C)C)cc1 [Compound B112, (2S,4R)-1-((S)-2-(4-((1r,4S)-4-((4-(4′-bromo-5′-oxo-5′H-spiro[cyclohexane-1,7′-indolo[1,2-a]quinazolin]-10′-yl)piperidin-1-yl)methyl)cyclohexyl)-1H-1,2,3-triazol-1-yl)-3,3-dimethylbutanoyl)-4-hydroxy-N-((R)-1-(4-(4-methylthiazol-5-yl)phenyl)-2-morpholinoethyl)pyrrolidine-2-carboxamide] | – | – | < 100 nM | > 90%
